Test results from US10723777B2, “Peptide having anti-obesity and anti-diabetes efficacy and use thereof” (CAREGEN CO., LTD., priority 2016, dated 2020).

Tests used:
[1] = tested on: adipogenic markers (PPARγ, ACC, and aP2) in 3T3-L1 cells; assay: Suppression of expression of genes involved in adipogenesis (RT-PCR); type: cell-based, mouse; conditions: TNFα 100 ng/ml; for expression levels of the adipogenic marker aP2 (gene): peptides/peptide complexes 0.1, 1, 10 μg/ml
Experimental: 3T3-L1 cells (pre-adipocytes) were seeded at a density of 3×10^5 cells/well into 6-well plates. After incubating for 24 hours, the cells were incubated for 14 days in a 37° C. incubator after treatment with various concentrations (0.1, 1, and 10 μg/ml) of the peptides. Thereafter, the cells were harvested and treated with an RNA extraction solution (Easy Blue, Intron) to prepare for RNA from which cDNA was then synthesized using an RT premix (Intron). PCR was performed using primers for the adipogenic markers (PPARγ, ACC, and aP2), and a PCR premix (Intron). Next, the PCR products were each loaded in an amount of 5 μl into a 1% agarose gel and electrophoresis was performed, and then bands were identified in a Gel-Doc.
Target-specific primer sequences for PCR of adipogenic markers are as follows: […]

[2] = tested on: DIO C57BL/6 mouse fed high-fat diet; assay: Adipogenesis-suppressive and lipolysis-promotive effect in DIO (diets induced obesity) mice; type: in vivo
Experimental: Obesity-induced Models DIO (diets induced obesity), which had become obese by feeding high-fat diets to normal C57BL/6 mouse, were used for the anti-obesity experiment in which 5 μg/ml of TNFα was used as a positive control drug. For a control, a general diet, not a high-fat diet, was fed. In this experiment, a high-fat diet was fed for 12 weeks, while the peptide complexes or the positive control drug were applied. During the experiment, the weight loss was confirmed.
TNFα and the anti-obesity active compounds were intraperitoneally injected at 3:00 to 4:00 pm every week for 12 weeks. Body weights and dietary amounts were measured just before the first drug injection, and then measured at weekly intervals.
Blood samples were collected from the tail vein after the end of the drug injection experiment, and then blood sugar levels were measured using Accu-Check Active (Roche) and cholesterol levels were analyzed using Cholesterol calculation Kit (BioVision).
Adipose tissues are classified into white fat and brown fat depending on the color and are classified into subcutaneous fat, abdominal fat, mesentery fat (visceral fat), and epididymal fat depending on the site. After dissection, each fat was extracted. For histological examination, the fats were fixed with 10% neutral buffered formalin, embedded in paraffin blocks, cut into […] sections, and dyed with hematoxylin and eosin.
To analyze the degree of phosphorylation of the lipolytic factor HSL, fluorescent staining was carried out using an anti-pHSL antibody. The tissue samples were prepared, mounted on glycerine jell mounting media, and covered with a cover glass. The tissues were taken with a digital camera built into a microscope (Nikon, TS100) and images were observed under the microscope.

[3] = tested on: DIO C57BL/6 mouse fed high-fat diet; assay: as above; type: in vivo; conditions: micro-CT; HDF (10 weeks) + treatment (8 weeks)
[4] = tested on: pre-adipocytes 3T3-L1 cells; assay: Inhibition of fat accumulation using pre-adipocyte (Oil Red O staining); type: cell-based, mouse; conditions: 3T3-L1, differentiation induced 10 days, various concentrations
Experimental: The pre-adipocytes 3T3-L1 cells were incubated until becoming confluent, and then incubated for two days after treatment with various concentrations of the peptides in a differentiation medium containing 10 μg/ml insulin, 0.1 μM dexamethasone, and 0.5 μM IBMX. Thereafter, the medium was exchanged every two days to a medium containing 10 μg/ml insulin. After differentiation was induced for 10 days, the generation of droplet in the cells was confirmed by Oil Red 0 staining.
The prepared 3T3-L1 pre-adipocytes were washed with PBS, fixed with 3.7% formalin for 1 hour, were washed with 60% isopropanol, and then were dyed with Oil Red O solution at room temperature for 20 minutes. After completion of dyeing, the Oil Red O solution was removed, the cells were washed three times with distilled water, and then the dyed cells were observed under a phase contrast microscope. For quantitative analysis, fats were extracted from the cells using 100% isopropanol, and the cells were transferred in an amount of 200 μl/well into 96-well plates and measured for optical density at 500 nm using an ELISA reader.

[5] = tested on: DB/DB diabetes-induced mice; assay: Blood sugar levels over time in DB/DB diabetes-induced mice administered with the peptides; type: in vivo, mouse; conditions: for blood sugar levels: High-Fat Diabetes DB/DB mice; for blood sugar levels (course over time): DB/DB mice
Experimental: In addition, after starvation for 16 hours, DB/DB diabetes-induced mice were fed for 30 minutes and then administered with the peptides. Blood sugar levels were measured over times and the results are shown in FIGS. 22 and 23 and Tables 7 and 8.

[6] = peptide complexes 0.1, 1, 10 μg/ml

TNFα
expression levels of the adipogenic marker ACC (gene) [1, 6]: decreased
expression levels of the adipogenic marker PPARγ (gene) [1, 6]: decreased
expression levels of the adipogenic marker aP2 (gene) [1]: decreased
body weight ([2]; Week 0, high-fat diet): 22.41 g
body weight in percentage ([2]; Week 0, high-fat diet): 100%
body weight ([2]; Week 1, high-fat diet): 23.00 g
body weight in percentage ([2]; Week 1, high-fat diet): 102.6%
body weight ([2]; Week 2, high-fat diet): 26.12 g
body weight in percentage ([2]; Week 2, high-fat diet): 116.6%
body weight ([2]; Week 3, high-fat diet): 27.45 g
body weight in percentage ([2]; Week 3, high-fat diet): 122.5%
body weight ([2]; Week 4, high-fat diet): 30.51 g
body weight in percentage ([2]; Week 4, high-fat diet): 136.1%
body weight ([2]; Week 5, high-fat diet): 32.76 g
body weight in percentage ([2]; Week 5, high-fat diet): 146.2%
body weight ([2]; Week 6, high-fat diet): 33.49 g
body weight in percentage ([2]; Week 6, high-fat diet): 149.4%
body weight ([2]; Week 7, high-fat diet): 35.14 g
body weight in percentage ([2]; Week 7, high-fat diet): 156.8%
body weight ([2]; Week 8, high-fat diet): 37.15 g
body weight in percentage ([2]; Week 8, high-fat diet): 165.8%
body weight ([2]; Week 9, high-fat diet): 38.97 g
body weight in percentage ([2]; Week 9, high-fat diet): 173.9%
body weight ([2]; Week 10, high-fat diet): 40.39 g
body weight in percentage ([2]; Week 10, high-fat diet): 180.2%
body weight ([2]; Week 11, high-fat diet): 41.35 g
body weight in percentage ([2]; Week 11, high-fat diet): 184.5%
body weight ([2]; Week 12, high-fat diet): 43.91 g
body weight in percentage ([2]; Week 12, high-fat diet): 195.9%
Subcutaneous Fat ([2]; micro-CT, HDF (10 weeks) + treatment (8 weeks)): 1332.08 mm^3
Total Fat [3]: 4165.80 mm^3
Total Volume [3]: 8240.67 mm^3
Visceral Fat [3]: 2833.72 mm^3

KGACTGWMA (Peptide 2) [SEQ ID NO: 2]
degree of fat accumulation in the cells (Oil Red O staining) [4]: decreased
expression levels of the adipogenic marker aP2 (gene) [1]: decreased
blood sugar levels ([5]; 30 minutes): 219 mg/dL
blood sugar levels ([5]; 60 minutes): 231 mg/dL
blood sugar levels ([5]; 120 minutes): 174 mg/dL
blood sugar levels ([5]; 240 minutes): 158 mg/dL
blood sugar levels ([5]; 300 minutes): 152 mg/dL
blood sugar levels (course over time) [5]: lowered in a time-dependent manner
blood sugar levels ([5]; Fasting): 181 mg/dL

ACYLPHPWFC (Peptide 4) [SEQ ID NO: 4]
degree of fat accumulation in the cells (Oil Red O staining) [4]: decreased
expression levels of the adipogenic marker aP2 (gene) [1]: decreased
blood sugar levels ([5]; 30 minutes): 249 mg/dL
blood sugar levels ([5]; 60 minutes): 229 mg/dL
blood sugar levels ([5]; 120 minutes): 215 mg/dL
blood sugar levels ([5]; 240 minutes): 180 mg/dL
blood sugar levels ([5]; 300 minutes): 165 mg/dL
blood sugar levels (course over time) [5]: lowered in a time-dependent manner
blood sugar levels ([5]; Fasting): 222 mg/dL
